We go through 2 compounds from article PMC3124400 (International Journal of Nanomedicine, 2011).

For data set [1] the following is noted: cited from earlier work.
The nature of data set [2]: In vitro release by dynamic dialysis method. Particulars: dialysis bag control. Type of data set: physicochemical.

As for `CC(C)OC(=O)C(C)(C)Oc1ccc(C(=O)c2ccc(Cl)cc2)cc1` [fenofibrate], in data set [1] (fenofibrate in fast-dissolving solid dispersion formulation), the “Increase in oral bioavailability” value is reported as 4.4 fold. Moreover, the “Enhancement of oral bioavailability” value in data set [1] (fenofibrate in liposomes containing sodium deoxycholate) is given as 5.13 fold. Turning to Cyclosporine A [CyA], the “Time for complete diffusion of CyA in solution across the dialysis bag” value in data set [2] was no more than 1 h.
